In patent publication US20260355184A1, “SMALL MOLECULE DEGRADERS OF HIV-1 TAT PROTEIN” (priority 2022, published 2026):
Where two headings read alike, the source gives them in different places.

Experiments:
[1] = tested on: HeLa-CD4-LTR-LacZ cells; assay: Cytotoxicity assay, Cell-Titer-Glo, HeLa-CD4-LTR-LacZ; settings: read-out: Infectivity CC50, HeLa-CD4-LTR-LacZ
Summary of the method: (§1)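 HeLa-CD4-LTR-LacZ reporter cells (β-Gal under HIV 5′ LTR) infected with HIV NL4.3; β-Gal activity read 72 h post infection, with parallel Cell-Titer-Glo viability. OM10.1 carry a single wild-type provirus; ACH-2 a single provirus with TAR C37T mutation, defective Tat-TAR feedback.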

[2] = tested on: HIV NL4.3 strain; assay: HIV infectivity assay, reporter cell line HeLa-CD4-LTR-LacZ, β-Gal activity (Tat protein inhibition); assay type: cell-based, HIV-1 (NL4.3)
Summary of the method: as §1

[3] = tested on: OM10.1 cells; assay: Cell-associated HIV Gag mRNA expression / HIV transcription in latently infected OM10.1 cells; assay type: cell-based; settings: 12-day treatment with ARVs
Protocol: (§2) Next, the activity of these leads against HIV infection was evaluated using the reporter cell line HeLa-CD4-LTR-LacZ, which stably expresses the β-galactosidase (β-Gal) gene under the control of the HIV 5′ LTR. The HIV NL4.3 strain was used for these studies and β-Gal activity was measured 72 hrs post infection (FIG. 3A). Cytotoxicity assays using Cell-Titer-Glo were performed in parallel to assess cell viability (FIG. 3A). […] Their anti-HIV activity was further assessed in acute replication of Jurkat T cells with the NL4.3 strain (FIG. 3A). […] These OM10.1 cells contain a single integrated wild-type provirus, while ACH-2 cells contain a single integrated provirus with a TAR mutation C37T, defective Tat-TAR feedback loop (FIG. 3B).

[4] = tested on: TAR (Flag-Tat-Rev fusion protein); assay: Flag-Tat-Rev fusion protein transactivation via TAR; assay type: cell-based, HIV-1; settings: TAR reporter
[5] = tested on: HIV; settings: combined with ART; CD4+ T cells from infected individuals and humanized mouse model; cited from earlier work
[6] = Cytotoxicity assay, Cell-Titer-Glo, HeLa-CD4-LTR-LacZ; settings: human, hela-cd4-ltr-lacz cells, Infectivity CC50, HeLa-CD4-LTR-LacZ
Summary of the method: as §1

[7] = molecular target: T1, Flag-Tat (Human immunodeficiency virus type 1 (HXB3 ISOLATE), UniProt P69698); assay: Degradation assay: Flag-Tat in HEK293T cells, western blot; assay type: cell-based, HIV; settings: for Flag-Tat degradation / steady state: HEK293T, western blot
T1 construct: Tat 86 aa likely (9 lysines)
Protocol: Next, the effect of the three leads on the alteration of Tat steady state levels was assessed. Tat expression from an integrated provirus, or from HIV acute infection is generally too low to be detected by western blot. Furthermore, antibodies against Tat are known for their lack of avidity. Tat degradation was thus assessed upon transfection. Flag-Tat or Flag-GFP were individually transfected into HEK293T and 24 hrs later, TT-44856, TT-44863 or TT-44881 were added to the culture, followed by Western blot 24 hrs later (dubbed “degradation assay”) (FIG. 5A). […] These cells were treated with TNFα (previously determined not be degraded by the three leads in FIG. 2D) in the presence of TT-44856, TT-44863 or TT-44881, followed by western blot with an anti-Flag antibody 17 hrs later. […] Finally, the leads' impact on recombinant Tat protein in HEK293T cells was assessed (FIG. 5D). HEK293T cells were incubated with recombinant Tat for 4 hrs to allow Tat internalization, followed by several thorough washes to remove unincorporated Tat. Cells were then incubated with all three leads (or Triptolide) for an additional 2 hrs. Cells were lysed and analyzed by western blot with an anti-Tat serum.
Degradation of Tat has been reported in the literature in multiple ways, including the lysosomal pathway^23, the ubiquitin-independent 20S proteasomal pathway (due to its unfolded structure)^24,25, and the ubiquitin-dependent 26S proteasomal pathway^26. It was first assessed whether Tat was targeted to the lysosomal pathway by the lead compounds. HEK293T cells were transfected with Flag-Tat for 24 hrs, incubated with the compounds for an additional 24 hrs, then treated for 8 hrs with either 100 μM chloroquine or 50 mM NH4Cl, both known to inhibit lysosomal hydrolases by reducing acidification. […] Both the 20S and the 26S proteasomal pathways were next investigated using MG132, an inhibitor of the catalytic […] of 20S present in both pathways^27. The degradation assay was carried out as above, but compounds were simultaneously incubated with MG132 20 μM or DMSO for 17 hrs followed by western blot. In the presence of MG132, Tat degradation was rescued, but the rescue was higher in the presence of the lead compounds (FIG. 6B).
Protein ubiquitination occurs by sequential recruitment of ubiquitin-activating enzyme E1, ubiquitin-conjugating enzyme E2, and ubiquitin ligase E3 (using ubiquitin, substrate protein, and ATP). The selectivity in protein ubiquitination is conferred by E3 ubiquitin ligases that recognize the substrate proteins^29 and the human genome contains more than 600 E3 ubiquitin ligases^29. To determine whether the small molecule leads trigger the 20S or the 26S proteasomal pathways, the Tat degradation assay was performed in the presence of commercially available E3 ligase inhibitors, including Lenalidomide a E3 ubiquitin ligase Cereblon inhibitor. Cereblon has not been previously reported to ubiquitinate Tat. The degradation assays were performed as above with Lenalidomide (40 μM) or DMSO incubation for 4 hrs in the presence of the lead molecules (FIG. 7A). […] To confirm the engagement of Cereblon in the mechanism of action of the lead compounds, shRNAs were used to stably knock down Cerebelon, or CD8 control, in HEK293T cells, and the degradation assay for TT-44856 was performed.
The involvement of the ubiquitous VHL E3 ligase in the activity of TT-44881 inducing Tat degradation was also investigated. HEK293T cells overexpressing Tat protein and VHL siRNAs (or si control) were treated with either TT-44881 (60 μM) and DMSO or TT-44881 with a VHL PROTAC (CM11, 500 nM) for 24 hours. siRNAs and PROTACs were used together to maximize the depletion of both VHL isoforms (30 and 19 kDa).

[8] = tested on: ACH-2 cells; assay: Cell-associated HIV Gag mRNA expression / HIV transcription in latently infected ACH-2 cells; assay type: cell-based; settings: ACH-2; 12-day treatment with ARVs
Protocol: as §2

[9] = molecular target: T2, recombinant Tat (Human immunodeficiency virus type 1 (HXB3 ISOLATE), UniProt P69698); assay: Recombinant Tat stability in HEK293T cells, western blot; assay type: cell-based, HIV; settings: 4 hrs recombinant Tat then 2 hrs compound, n=1
T2 construct: detected with anti-Tat serum
Protocol: Next, the effect of the three leads on the alteration of Tat steady state levels was assessed. Tat expression from an integrated provirus, or from HIV acute infection is generally too low to be detected by western blot. Furthermore, antibodies against Tat are known for their lack of avidity. Tat degradation was thus assessed upon transfection. Flag-Tat or Flag-GFP were individually transfected into HEK293T and 24 hrs later, TT-44856, TT-44863 or TT-44881 were added to the culture, followed by Western blot 24 hrs later (dubbed “degradation assay”) (FIG. 5A). […] Finally, the leads' impact on recombinant Tat protein in HEK293T cells was assessed (FIG. 5D). HEK293T cells were incubated with recombinant Tat for 4 hrs to allow Tat internalization, followed by several thorough washes to remove unincorporated Tat. Cells were then incubated with all three leads (or Triptolide) for an additional 2 hrs. Cells were lysed and analyzed by western blot with an anti-Tat serum.

[10] = tested on: TAR-SIIB promoter (Flag-Tat-Rev fusion protein); assay: Flag-Tat-Rev fusion protein transactivation of TAR-SIIB promoter; assay type: cell-based, HIV-1; settings: SIIB reporter HEK293T
Protocol: FIG. 4. […] Shown is n=1. […] Shown is n=1. ARVs: antiretrovirals: 100 nM Efavirenz, 200 nM Lamivudine and 200 nM Raltegravir. C. […] SIIB: a reporter HEK293T stable cell line where the essential apical region of TAR was replaced by the 29-nucleotide stem-loop IIB (SIIB) subdomain of the HIV-1 RRE. A Tat-Rev fusion protein activates transcription of luciferase when Rev binds SIIB, bringing Tat and P-TEFb to RNAPII at the HIV promoter. Shown is mean±SEM of n=4.

[11] = read-out: Infectivity IC50, HeLa-CD4-LTR-LacZ, analogs of TT-44856 (Table 3)

T1 sequence (P69698 whole entry): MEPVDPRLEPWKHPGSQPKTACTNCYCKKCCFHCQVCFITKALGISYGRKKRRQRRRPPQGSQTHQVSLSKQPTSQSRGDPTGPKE
T2 sequence (P69698 whole entry): as above

What does the source list for O=C(NCCCN1CCCC1=O)c1nn(-c2ccccc2)c2c1CCCC2 [GB-02]?
CC50 ([1]; analogs of TT-44881 (Table 1)): > 100 µM; IC50 ([2]; read-out: Infectivity IC50, HeLa-CD4-LTR-LacZ, analogs of TT-44881 (Table 1)): 50 to 100 µM

What does the source list for CC(C)(C)OC(=O)COCCOCCOc1ccc(C(F)(F)F)cc1NC(=O)Cn1cc(C(F)(F)F)cc(Cl)c1=O [compound 56]?
CC50 ([1]; analogs of TT-44863 (Table 2)): > 100 µM; IC50 ([2]; read-out: Infectivity IC50, HeLa-CD4-LTR-LacZ, analogs of TT-44863 (Table 2)): > 100 µM

Which “Gag mRNA / HIV transcription (in words)” value [3] does the source give for CN(C)[C@H]1C[C@@]23CC[C@@]4(O2)C(=CC[C@]2(C)C(c5ccc6ccncc6c5)=CC[C@H]24)C=C3[C@@H](O)[C@@H]1O [dCA, didehydro-Cortistatin A, reference compound] here?
The value was “only inhibited transcription in OM10.1 cells”.

What about the “Flag-Tat-Rev / TAR” value [4] of the same molecule?
Its value is “interfered with the Flag-Tat-Rev to TAR binding”.

And the “transcription and viral rebound with ART” value [5]?
Its value is “inhibits transcription and blocks viral rebound upon treatment interruption”.

With CN(CCCN1CCCC1=O)C(=O)c1nn(-c2ccccc2)c2c1CCC2 [GB-04] as the molecule, how does the CC50 ([6]; analogs of TT-44881 (Table 1)) read?
Its CC50 is over 100 µM.

And the “Flag-Tat degradation / steady state” value [7]?
Its value is “did not affect Flag-Tat steady state”.

And the IC50 ([2]; Human immunodeficiency virus 1, read-out: Infectivity IC50, HeLa-CD4-LTR-LacZ, analogs of TT-44881 (Table 1))?
Its IC50 is over 100 µM.

Which CC50 ([1]; analogs of TT-44856 (Table 3)) does the source give for O=C(NCCCn1ccnc1)C(c1ccccc1)c1ccccc1 [3-71] here?
Its CC50 is over 100 µM.

And the IC50 [2, 11]?
Its IC50 is 1 to 30 µM.

With CC(C)[C@]12O[C@H]1[C@@H]1O[C@]13[C@]1(O[C@H]1C[C@H]1C4=C(CC[C@@]13C)C(=O)OC4)[C@@H]2O [Triptolide, reference compound] as the molecule, how does the “Gag mRNA / HIV transcription (in words)” value [3] read?
The value was “reduced Gag mRNA in both cell lines”.

And the “Gag mRNA / HIV transcription (in words)” value [8]?
The value was “reduced Gag mRNA in both cell lines”.

What about the “recombinant Tat degradation” value [9] of the same molecule?
Its value is “degraded Tat as opposed to the DMSO control”.

What about the “Flag-Tat-Rev / TAR” value [4] of the same molecule?
The value was “inhibition of both TAR and TAR-SIIB”.

And the “Flag-Tat degradation / steady state” value [7]?
Its value is “nonspecifically degraded Flag-Tat”.

What about the “effect of Lenalidomide on compound induced Flag-Tat degradation” value ([7]; Lenalidomide 40 μM, 4 hrs) of the same molecule?
Its value is “did not engage the 26S proteasomal pathway, but only the 20S proteasomal pathway”.

What about the “Flag-Tat-Rev transactivation of TAR-SIIB” value [10] of the same molecule?
The value was “inhibition of both TAR and TAR-SIIB”.

What does the source list for Cc1nccn1CCCNC(=O)C(C)(c1ccccc1)c1ccccc1 [3-53]?
CC50 ([1]; analogs of TT-44856 (Table 3)): 50 to 100 µM; IC50 [2, 11]: 1 to 10 µM

With COc1ccc(C#N)cc1NC(=O)Cn1cccc(Cl)c1=O [TT-46766] as the molecule, how does the CC50 ([6]; analogs of TT-44863 (Table 2)) read?
The CC50 was over 100 µM.

What about the “Flag-Tat degradation / steady state” value [7] of the same molecule?
The value was “did not affect Flag-Tat steady state”.

And the IC50 ([2]; Human immunodeficiency virus 1, read-out: Infectivity IC50, HeLa-CD4-LTR-LacZ, analogs of TT-44863 (Table 2))?
The IC50 was over 100 µM.
